Reference: US6338962B1, “Use of a non-mammalian DNA virus to express an exogenous gene in a mammalian cell” (priority 1996, dated 2002)

Legend:
Rat Hepatocytes = assay: Comparison of promoter strengths, β-galactosidase ONPG assay; format: cell-based; conditions: Rat Hepatocytes −butyrate
HepG2 cells [1] = assay: X-gal histochemical staining of infected cells; format: cell-based, human; conditions: moi 100
Protocol: […] Adherent cell lines were seeded one day prior to infection. Cells were exposed to virus in 2 ml of medium for 90 minutes, and then the virus-containing medium was removed and replaced with fresh medium. Mock-infected cells were treated with 2 ml medium lacking the viral inoculum.
For histochemical staining of β-galactosidase activity, cells were fixed in 2% (w/v) formaldehyde-0.2% (v/v) […] in PBS for 5 minutes. After several rinses with PBS, the cells were stained by the addition of 0.5 mg/ml of X-gal (BRL) in PBS for 2-4 hours at 37° C.

Hep G2 = assay: Comparison of promoter strengths, β-galactosidase ONPG assay; format: cell-based, human; conditions: for Promoter strength, β-galactosidase: moi 100, 24 hours, mock background subtracted
Description: Baculovirus-mediated Gene Transfer is Enhanced by Butyrate: This example illustrates that butyrate enhances the ability of a baculovirus to express an exogenous gene in a mammalian cell. Five transfer plasmids containing different mammalian promoters were created, as diagrammed in FIG. 18. These vectors were constructed using pSV/BV, a modified version of the baculovirus transfer plasmid pBacPAK9 (Clontech), containing an altered polylinker and SV40 splice and polyadenylation signals. pSV/BV was constructed by restriction of pBacPAK9 with NotI, treatment with T4 DNA polymerase to create blunt ends, and self-ligation to remove the NotI site. A new NotI site was then added by ligation of the linker p[…] into the SmaI site. Finally, SV40 splice and polyadenylation sequences were added by digestion of a variant of pRSVglobin with BglII-BamHI, and insertion of the 850 bp fragment into the BamHI site of the modified BacPAK9, yielding pSV/BV. The human cytomegalovirus immediate early promoter, 758 bp HindIII-XbaI fragment, was excised from PCMV-EBNA (Invitrogen) at HindIII, BamHI and inserted into the HindIII, BamHI sites of pBluescript (SKII^+), yielding plasmid pCMV-SKII^+. The promoter was then excised from CMV-SK II^+ at the XhoI, BamHI sites and inserted into the XhoI, BglII sites of pSV/BV, yielding plasmid pCMV/BV. The 500 bp mouse phosphoglycerate kinase (PGK) promoter was prepared by cutting pKJ1-neo (Tybulewicz et al., 1991, Cell 65: 1153-1163) with EcoRI and made blunt with T4 DNA polymerase to remove the EcoRI site. The resulting pKJ1 plasmid lacking the EcoRI site was amplified by pfu polymerase chain reaction using the primers 5′ […]3′ (SEQ ID NO: 5) and 5′ […]3′ (SEQ ID NO: 6). The amplified PGK promoter was then digested with XhoI and BglII and inserted into the same sites of pSV/BV yielding PKJ1/BV. The 345 bp rat β-actin promoter was excised from pINA (6) at BglII, BamHI and inserted into the BglII site of pSV/BV yielding pβ-actin/BV. The 2.3 kb albumin enhancer and 700 bp albumin promoter were excised from pGEMAlbSVPA (Zaret et al., 1988, Proc. Natl. Acad. Sci. 85:9076-9080) at NaeI, NsiI and inserted into the SmaI, PstI sites of pSV/BV. The RSVlacZ transfer plasmid used (also referred to herein as the Z4 virus) is described above. A 3.0 kb Lac Z cassette was inserted into the NotI site of all of the plasmids constructed (See FIG. 18).
Recombinant viruses were generated by contransfection of the baculovirus transfer vectors with linear BP6 viral DNA (Clontech) into Sf21 cells. The recombinant viruses were purified through three rounds of plaque isolation and amplified on Sf21 cells. The amplified viruses were concentrated by ultracentrifugation as described above and titered by a 96-well method on Sf21 insect cells (O'Reilly et al., 1992, Baculovirus Expression Vectors: A Laboratory Manual, W.H. Freeman, New York, N.Y.).
The human hepatocellular carcinoma cell line HepG2 was infected with each recombinant virus at a multiplicity of infection of 100. Two million cells were infected in a final volume of 1 ml Eagle's Minimum Essential Medium in a 60 mm tissue culture dish. The infection was allowed to proceed for two hours, then 4 ml of complete medium was added to the cells. In a second series of HepG2 infections, the conditions of the first infections were repeated with the exception that after the infection had proceeded for 2 hours 25 μl of sodium butyrate (100 mM) was added to the cells with 1.5 ml complete media. […]

HepG2 cells [2] = assay: De novo expression test with inhibitors, β-galactosidase in extracts; format: cell-based, human
Protocol: Second, HepG2 cells were infected with the RSV-lacZ virus and then cultured in the presence of the protein synthesis inhibitor cycloheximide.
To determine whether endosome acidification was necessary for baculovirus-mediated gene transfer into mammalian cells, HepG2 cells were infected with RSV-lacZ AcMNPV in the presence of chloroquine, a lysomotropic agent. HepG2 cells were exposed to AcMNPV virus in media containing or lacking inhibitor for 90 minutes, then the virus-containing media were removed and replaced with fresh media containing or lacking inhibitors as listed.
At one day post-infection, the cells were harvested and extracts were assayed for β-galactosidase activity and protein content. Each value in the table represents the average of three independent assays, with the amount of β-galactosidase produced by the RSV-lacZ AcMNPV virus in the absence of inhibitors assigned a value of 100%. β-galactosidase activity was normalized for protein content of each extract.

Compound: Albumin
- Promoter strength, β-galactosidase (Rat Hepatocytes): 0.15 ± 0.08 Units/mg
- X-gal staining of cells not treated with butyrate (HepG2 cells [1]): positively stained cells were detected
- Promoter strength, β-galactosidase (Hep G2; Hep G2 +butyrate): 0.08 ± 0.04 Units/mg
- Promoter strength, β-galactosidase (Hep G2; Hep G2 −butyrate): 0.0 ± 0.0 Units/mg
- Promoter strength, β-galactosidase (Hep G2; Hep G2 −butyrate, listed as albumin): no activity above background levels
- change of gene expression after treatment with butyrate (Hep G2; HepG2): increased gene expression

Compound: CCN(CC)CCCC(C)Nc1ccnc2cc(Cl)ccc12 (stereo not drawn) [chloroquine]
- effect on de novo expression of β-galactosidase (HepG2 cells [2]; 25 μM continuously present during and after exposure to virus): completely prevented
- effect on β-galactosidase expression (HepG2 cells [2]; added at 90 minutes after exposure to the virus): only partial inhibition

Compound: CCCC(=O)[O-].[Na+] [sodium butyrate, reference compound]
- effect of addition after infection on β-galactosidase expression (Hep G2; HepG2, added 2 hours after start of infection): detectable levels of β-galactosidase expression with all of the promoters tested
